Measurements: patent US20200163984A1, “USE OF ISOVALERYL SPIRAMYCIN I, II AND/OR III IN MANUFACTURING MEDICAMENT FOR TREATING AND/OR PREVENTING TUMOR, AND MEDICAMENT” (SHENYANG FUYANG PHARMACEUTICAL TECHNOLOGY CO., LTD., priority 2017, published 2020)

Test system: transplanted tumor of human glioblastoma cell A172
Details: 50 mg/kg
Procedure: Then cell concentration was adjusted to 1×10^7/ml with matrigel, then each nude mouse was inoculated subcutaneously with 0.2 ml of cells at its right armpit and recorded as the first day of inoculation. When the tumor grows to be greater than or equal to 100 mm^3, the mice were randomly divided into 11 groups with 6 mice in each group: a model group, a temozolomide group, […], […], […] Each group was continuously administered intragastrically for 30 days with a dose of 20 ml/kg. The mice were sacrificed the next day after drug withdrawal and the indicators were tested. The long diameter and short diameter of the tumor, and the body weight of each mouse were recorded every 3 days from drug administration to nude mouse sacrifice.
The body weight of the nude mice and the long diameter (a) and short diameter (b) of the transplanted tumor were measured every 3 days, and the tumor volume (v), relative tumor volume (RTV) and relative tumor proliferation rate (T/C) are calculated respectively according to the following formulas, wherein V=a×b^2/2; RTV=V/V0 (V0 is the tumor volume before administration, V is the tumor volume before sacrifice), and T/C (%)=treatment group RTV/model control group RTV×100%.
Each mouse was weighed and sacrificed. After the tumor was completely stripped off from the body of the mouse, the non-tumor tissues such as blood stains and fat were removed to weigh the tumor and calculate the tumor growth inhibition rate. The average tumor weight of each group of mice is used as an indicator of efficacy. Tumor growth inhibition rate (%)=(1−the average tumor weight of the treatment group/the average tumor weight of the model group)×100%.

## Cn1nnc2c(C(N)=O)ncn2c1=O [temozolomide, reference compound]
A172 nude mice
  Inhibition Rate (%): 68.89%
  Relative Tumor Proliferation Rate (T/C): 61.35%
  Relative Tumor Volume (RTV): 4.12 ± 2.03
  Tumor Weight: 0.43 ± 0.06 g
A172 nude mice, d1
  Tumor Volume (mm3) (d 1): 116.6 ± 10.91 mm3
A172 nude mice, d30
  Tumor Volume (mm3) (d30): 482.11 ± 89.74 mm3
mouse, in vivo
  Body Weight (g) (d1): 21.07 ± 0.57 g
  Body Weight (g) (d30): 19.83 ± 1.24 g
